From US10308644B2, “Heterocyclic compounds as immunomodulators” (Incyte Corporation, priority 2016, dated 2019)

What follows are compounds tested against PD-1/PD-L1 (Homo sapiens (Human), UniProt Q9NZQ7) (assay: PD-1/PD-L1 Homogeneous Time-Resolved Fluorescence (HTRF) Binding Assay). Conditions: recombinant human PD-1 (3 nM) and PD-L1 (10 nM), 25° C., PBS pH 7.4.
Outline: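 Fc-tagged human PD-1 (25-167, 3 nM) and His-tagged PD-L1 (19-238, 10 nM) preincubated with inhibitor 40 min in PBS pH 7.4, 0.05% Tween-20, 0.1% BSA, 1% DMSO, 25 °C. Binding detected by HTRF (Eu anti-IgG/APC anti-His, 665/620 nm) after 60 min; IC50 from percent control activity.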

PD-1/PD-L1, sequence (Q9NZQ7 19-238): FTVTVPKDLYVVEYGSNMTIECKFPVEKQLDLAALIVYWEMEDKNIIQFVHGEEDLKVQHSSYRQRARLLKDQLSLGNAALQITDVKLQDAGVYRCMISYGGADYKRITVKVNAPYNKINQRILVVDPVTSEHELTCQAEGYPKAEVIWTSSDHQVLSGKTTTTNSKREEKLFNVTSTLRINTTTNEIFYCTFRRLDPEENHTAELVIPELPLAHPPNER

IC50, ≤ 10 nM:
Cc1c(-c2nc3cc(CN4CC[C@@H](C(=O)O)C4)cc(C#N)c3o2)cccc1-c1cccc(-c2nc3c(s2)CN(C)CC3)c1C [Example 73]
Cc1c(-c2nc3cc(CN4CC[C@@H](C(=O)O)C4)cc(C#N)c3o2)cccc1-c1cccc(-c2nc3c(s2)CN(C(=O)CN2CCC2)C3)c1C [Example 113, (R)-1-((2-(3′-(5-(2-(azetidin-1-yl)acetyl)-5,6-dihydro-4H-pyrrolo[3,4-d]thiazol-2-yl)-2,2′-dimethylbiphenyl-3-yl)-7-cyanobenzo[d]oxazol-5-yl)methyl)pyrrolidine-3-carboxylic acid]
Cc1c(-c2nc3c(o2)CN(C(=O)CN2CC(O)C2)C3)cccc1-c1cccc(-c2nc3cc(CN4CC[C@@H](C(=O)O)C4)cc(C#N)c3o2)c1C [Example 127, (R)-1-((7-cyano-2-(3′-(5-(2-(3-hydroxyazetidin-1-yl)acetyl)-5,6-dihydro-4H-pyrrolo[3,4-d]oxazol-2-yl)-2,2′-dimethyl-[1,1′-biphenyl]-3-yl)benzo[d]oxazol-5-yl)methyl)pyrrolidine-3-carboxylic acid]
Cc1c(-c2nc3c(o2)CN(C(=O)CN2CCN(C)CC2)C3)cccc1-c1cccc(-c2nc3cc(CN4CC5CC4CC5C(=O)O)cc(C#N)c3o2)c1C (stereo not shown) [Example 253, 2-((7-cyano-2-(2,2′-dimethyl-3,-(5-(2-(4-methylpiperazin-1-yl)acetyl)-5,6-dihydro-4H-pyrrolo[3,4-d]oxazol-2-yl)-[1,1′-biphenyl]-3-yl)benzo[d]oxazol-5-yl)methyl)-2-azabicyclo[2.2.1]heptane-5-carboxylic acid]
Cc1c(-c2nc3c(o2)CCNC3)cccc1-c1cccc(-c2nc3cc(CN4CC(C(=O)O)C4)cc(Cl)c3o2)c1C [Example 77, 1-((7-chloro-2-(2,2′-dimethyl-3′-(4,5,6,7-tetrahydrooxazolo[4,5-c]pyridin-2-yl)-[1,1′-biphenyl]-3-yl)benzo[d]oxazol-5-yl)methyl)azetidine-3-carboxylic acid]
Cc1c(-c2nc3cc(CN4CCC(C(=O)O)CC4)cc(C#N)c3o2)cccc1-c1cccc(-c2nc3c(s2)CN(C(=O)CN(C)C)C3)c1C [Example 236, 1-((7-cyano-2-(3′-(5-(2-(dimethylamino)acetyl)-5,6-dihydro-4H-pyrrolo[3,4-d]thiazol-2-yl)-2,2′-dimethylbiphenyl-3-yl)benzo[d]oxazol-5-yl)methyl)piperidine-4-carboxylic acid]
Cc1c(NC(=O)c2nc3c(n2C)CCN(C)C3)cccc1-c1cccc(-c2nc3cc(CN(C)CCC(=O)O)cc(Cl)c3o2)c1C [Example 42, 3-(((7-chloro-2-(3′-(1,5-dimethyl-4,5,6,7-tetrahydro-1H-imidazo[4,5-c]pyridine-2-carboxamido)-2,2′-dimethylbiphenyl-3-yl)benzo[d]oxazol-5-yl)methyl)(methyl)amino) propanoic acid]
Cc1c(-c2nc3cc(CN4CCC(C(=O)O)CC4)cc(C#N)c3o2)cccc1-c1cccc(NC(=O)c2nc3c(n2C)CCN(CCO)C3)c1Cl [Example 156, 1-((2-(2′-chloro-3′-(5-(2-hydroxyethyl)-1-methyl-4,5,6,7-tetrahydro-1H-imidazo[4,5-c]pyridine-2-carboxamido)-2-methylbiphenyl-3-yl)-7-cyanobenzo[d]oxazol-5-yl)methyl)piperidine-4-carboxylic acid]
Cc1c(Nc2nccc3cc(CNC[C@H](C)O)cnc23)cccc1-c1cccc(-c2nc3cc(CN4CC[C@@H](C(=O)O)C4)cc(C#N)c3o2)c1C [Example 146, (R)-1-((7-cyano-2-(3′-((3-((((S)-2-hydroxypropyl)amino)methyl)-1,7-naphthyridin-8-yl)amino)-2,2′-dimethyl-[1,1′-biphenyl]-3-yl)benzo[d]oxazol-5-yl)methyl)pyrrolidine-3-carboxylic acid]
Cc1c(Nc2nccc3cc(CN4CCC(C(=O)O)CC4)cnc23)cccc1-c1cccc(-c2nc3cc(CN4CC[C@@H](O)C4)cc(C#N)c3o2)c1C [Example 214, (R)-1-((8-(3′-(7-cyano-5-((3-hydroxypyrrolidin-1-yl)methyl)benzo[d]oxazol-2-yl)-2,2′-dimethylbiphenyl-3-ylamino)-1,7-naphthyridin-3-yl)methyl)piperidine-4-carboxylic acid]
Cc1c(Nc2nccc3cc(CN4CC[C@](C)(O)C4)cnc23)cccc1-c1cccc(-c2nc3cc(CN4CC[C@@](C)(C(=O)O)C4)cc(C#N)c3o2)c1C [Example 200, (R)-1-((7-cyano-2-(3′-(3-(((S)-3-hydroxy-3-methylpyrrolidin-1-yl)methyl)-1,7-naphthyridin-8-ylamino)-2,2′-dimethylbiphenyl-3-yl)benzo[d]oxazol-5-yl)methyl)-3-methylpyrrolidine-3-carboxylic acid]
Cc1c(Nc2nccc3cc(C4CCCN4)cnc23)cccc1-c1cccc(-c2nc3cc(CN4CC[C@@H](C(=O)O)C4)cc(C#N)c3o2)c1C (single isomer, unassigned) [Example 99]
Cc1c(Nc2nccc3cc(CN4CC[C@@H](O)C4)cnc23)cccc1-c1cccc(-c2nc3cc(CN4CC5(C(=O)O)CC4C5)cc(C#N)c3o2)c1C [Example 178, (R)-2-((7-cyano-2-(3′-(3-((3-hydroxypyrrolidin-1-yl)methyl)-1,7-naphthyridin-8-ylamino)-2,2′-dimethylbiphenyl-3-yl)benzo[d]oxazol-5-yl)methyl)-2-aza bicyclo[2.1.1]hexane-4-carboxylic acid]
CCN(C)CC(=O)N1Cc2nc(-c3cccc(-c4cccc(-c5nc6cc(CN7CC8(C(=O)O)CC7C8)cc(C#N)c6o5)c4C)c3C)sc2C1 [Example 220, 2-((7-cyano-2-(3′-(5-(2-(ethyl(methyl)amino)acetyl)-5,6-dihydro-4H-pyrrolo[3,4-d]thiazol-2-yl)-2,2′-dimethylbiphenyl-3-yl)benzo[d]oxazol-5-yl)methyl)-2-azabicyclo[2.1.1]hexane-4-carboxylic acid]
Cc1nc(CN2CC[C@H](O)C2)cnc1OCc1cccc(-c2cccc(-c3nc4cc(CN5CCC(C(=O)O)C5)cc(Cl)c4o3)c2C)c1Cl (stereo partly drawn) [Example 153, 1-((7-chloro-2-(2′-chloro-3′-((5-(((S)-3-hydroxypyrrolidin-1-yl)methyl)-3-methylpyrazin-2-yloxy)methyl)-2-methylbiphenyl-3-yl)benzo[d]oxazol-5-yl)methyl)pyrrolidine-3-carboxylic acid]
Cc1c(Nc2nccc3cc(CN4CC[C@H](O)C4)cnc23)cccc1-c1cccc(-c2nc3cc(CN4CC[C@H](C(=O)O)C4)cc(Cl)c3o2)c1C [Example 17, (S)-1-((7-chloro-2-(3′-(3-(((S)-3-hydroxypyrrolidin-1-yl)methyl)-1,7-naphthyridin-8-ylamino)-2,2′-dimethylbiphenyl-3-yl)benzo[d]oxazol-5-yl)methyl)pyrrolidine-3-carboxylic acid]
Cc1c(Nc2nccc3cc(CN4CC(O)C4)cnc23)cccc1-c1cccc(-c2nc3cc(CN4CC[C@@H](C(=O)O)C4)cc(C#N)c3o2)c1C [Example 136, (R)-1-((7-cyano-2-(3′-(3-((3-hydroxyazetidin-1-yl)methyl)-1,7-naphthyridin-8-ylamino)-2,2′-dimethylbiphenyl-3-yl)benzo[d]oxazol-5-yl)methyl)pyrrolidine-3-carboxylic acid]
Cc1c(-c2nc3cc(CN4CC[C@@H](C(=O)O)C4)cc(C#N)c3o2)cccc1-c1cccc(-c2nc3c(s2)CN(CC2CC2)CC3)c1C [Example 64, (R)-1-((7-cyano-2-(3′-(5-(cyclopropylmethyl)-4,5,6,7-tetrahydrothiazolo[5,4-c]pyridin-2-yl)-2,2′-dimethyl-[1,1′-biphenyl]-3-yl)benzo[d]oxazol-5-yl)methyl)pyrrolidine-3-carboxylic acid]
Cc1c(Nc2nccc3cc(CN4CC[C@@H](O)C4)cnc23)cccc1-c1cccc(-c2nc3cc(CNC45CCC(C(=O)O)(CC4)C5)cc(C#N)c3o2)c1C [Example 183, (R)-4-((7-cyano-2-(3′-(3-((3-hydroxypyrrolidin-1-yl)methyl)-1,7-naphthyridin-8-ylamino)-2,2′-dimethylbiphenyl-3-yl)benzo [d]oxazol-5-yl)methylamino)bicyclo[2.2.1]heptane-1-carboxylic acid]
Cc1c(Nc2nccc3cc(CN4CC[C@@H](O)C4)cnc23)cccc1-c1cccc(-c2nc3cc(CN4CC[C@@H](C(=O)O)C4)cc(C#N)c3o2)c1Cl [Example 168, (R)-1-((2-(2-chloro-3′-(3-(((R)-3-hydroxypyrrolidin-1-yl)methyl)-1,7-naphthyridin-8-ylamino)-2′-methylbiphenyl-3-yl)-7-cyanobenzo[d]oxazol-5-yl)methyl)pyrrolidine-3-carboxylic acid]
Cc1c(Nc2nccc3cc(CN4CC[C@@H](O)C4)cnc23)cccc1-c1cccc(-c2nc3cc(CN4CC5(CC(C(=O)O)C5)C4)cc(C#N)c3o2)c1C [Example 177, 2-((7-cyano-2-(3′-(3-(((R)-3-hydroxypyrrolidin-1-yl)methyl)-1,7-naphthyridin-8-ylamino)-2,2′-dimethylbiphenyl-3-yl)benzo[d]oxazol-5-yl)methyl)-2-azaspiro[3,3]heptane-6-carboxylic acid]
Cc1c(-c2nc3cc(CNCCO)cc(C#N)c3o2)cccc1-c1cccc(-c2nc3c(s2)CN(C(C)C)CC3)c1C [Example 120, 5-(((2-hydroxyethyl)amino)methyl)-2-(3′-(5-isopropyl-4,5,6,7-tetrahydrothiazolo[5,4-c]pyridin-2-yl)-2,2′-dimethyl-[1,1′-biphenyl]-3-yl)benzo[d]oxazole-7-carbonitrile]
